Source: patent publication US8247211B2, “Glycopeptide antibiotics” (American Cyanamid Company, priority 2001, dated 2012)
Converted amounts (≈) assume the structure as drawn.

What was measured:
Assay in all cases: In vitro antibacterial evaluation: minimum inhibitory concentration (MIC), broth dilution method
Format in all cases: cell-based
Streptococcus sp. = conditions: for MIC Streptococcus pneumoniae (ATCC 6301): strain ATCC 6301; for MIC Streptococcus pneumoniae (GC 1894): strain GC 1894; for MIC Streptococcus pyogenes (GC 4563): strain GC 4563; for MIC Streptococcus agalactiae (GC 4564): strain GC 4564; for MIC Streptococcus pneumoniae (GC 4565): strain GC 4565
Method: (§1) The minimum inhibitory concentration (MIC), the lowest concentration of the antibiotic which inhibits growth of the test organism, is determined by the broth dilution method using Muller-Hinton II […] (Baltimore Biological Laboratories) following the recommendations of the National Committee for Clinical Laboratory Standards [Methods for dilution antimicrobial susceptibility tests for bacteria that grow aerobically, approved standard M7-A2, National Committee for Clinical Laboratory Standards, Villanova, Pa].
(§2) An inoculum level of 5×10^5 CFU/mL, and a range of antibiotic concentrations (64-0.06 μg/mL) is used. […] The test organisms include a spectrum of Gram-positive bacteria comprised of Staphylococcus sp., Streptococcus sp. and Enterococcus sp. These organisms include recent clinical isolates that are resistant to methicillin, penicillin and/or vancomycin.

Staphylococcus sp. = conditions: broth dilution, 18 hours at 35° C.
Method: as §1, §2

Enterococcus sp. = conditions: for MIC Enterococcus faecalis (ATCC 29212): strain ATCC 29212; for MIC Enterococcus faecalis (GC 2242): strain GC 2242; for MIC Enterococcus faecium (GC 2243): strain GC 2243; for MIC Enterococcus faecalis (GC 2691): strain GC 2691; for MIC Enterococcus faecalis (GC 3059): strain GC 3059; for MIC Enterococcus faecalis (GC 4552): strain GC 4552; for MIC Enterococcus faecalis (GC 4553): strain GC 4553; for MIC Enterococcus faecalis (GC 4554): strain GC 4554; for MIC Enterococcus faecium (GC 4556): strain GC 4556; for MIC Enterococcus faecium (GC 4557): strain GC 4557; for MIC Enterococcus avium (GC 4558): strain GC 4558; for MIC Enterococcus faecalis (GC 6189): strain GC 6189
Method: as §1, §2

Escherichia coli = conditions: for MIC Escherichia coli (ATCC 25922): strain ATCC 25922; for MIC Escherichia coli (GC 4559): strain GC 4559; for MIC Escherichi coli (GC 4560): strain GC 4560
Method: as §1, §2

## Cc1cc(C2OCC3OC(OC4C(CO)OC(Oc5ccc(CC6NC(=O)C(C(C)c7ccccc7)NC(=O)CNC(=O)C(CO)NC(=O)C(C(O)C7CNC(=N)N7C7OC(CO)C(O)C(O)C7O)NC(=O)C(C(O)C7CNC(=N)N7)NC6=O)cc5)C(O)C4O)C(O)C(O)C3O2)ccc1[N+](=O)[O-] (stereo not drawn) [Example 151, Cyclo[glycyl-β-methylphenylalanyl-O-[4-O-[4,6-O-(3-methyl-4-nitrobenzylidene)hexonyranosyl]hexopyranosyl]tyrosyl-3-(2-iminoimidazolidin-4-yl)seryl-3-(3-hexopyranosyl-2-iminoimidazolidin-4-yl)serylseryl]]
Streptococcus sp.
  MIC Streptococcus pneumoniae (ATCC 6301): 1 µg/mL (≈ 0.693 µM)
  MIC Streptococcus pneumoniae (GC 1894): 0.5 µg/mL (≈ 0.347 µM)
  MIC Streptococcus pyogenes (GC 4563): 2 µg/mL (≈ 1.39 µM)
  MIC Streptococcus agalactiae (GC 4564): 4 µg/mL (≈ 2.77 µM)
  MIC Streptococcus pneumoniae (GC 4565): 1 µg/mL (≈ 0.693 µM)
Staphylococcus sp.; 5×10^5 CFU/mL
  MIC Coagulase Negative Staphylococcus (GC 4547): 4 µg/mL (≈ 2.77 µM)
  MIC Coagulase Negative Staphylococcus (GC 4548): 4 µg/mL (≈ 2.77 µM)
  MIC Coagulase Negative Staphylococcus (GC 4549): 2 µg/mL (≈ 1.39 µM)
  MIC Coagulase Negative Staphylococcus (GC 4551): 8 µg/mL (≈ 5.55 µM)
  MIC Coagulase Negative Staphylococcus (GC 6257): 2 µg/mL (≈ 1.39 µM)
  MIC Staphylococcus aureus (ATCC 29213): 8 µg/mL (≈ 5.55 µM)
  MIC Staphylococcus aureus (GC 1131): 8 µg/mL (≈ 5.55 µM)
  MIC Staphylococcus aureus (GC 3051): 8 µg/mL (≈ 5.55 µM)
  MIC Staphylococcus aureus (GC 3053): 16 µg/mL (≈ 11.1 µM)
  MIC Staphylococcus aureus (GC 4541): 4 µg/mL (≈ 2.77 µM)
  MIC Staphylococcus aureus (GC 4542): 8 µg/mL (≈ 5.55 µM)
  MIC Staphylococcus aureus (GC 4544): 8 µg/mL (≈ 5.55 µM)
  MIC Staphylococcus aureus (GC 4545): 4 µg/mL (≈ 2.77 µM)
  MIC Staphylococcus aureus-SMITH (GC 4543): 8 µg/mL (≈ 5.55 µM)
  MIC Staphylococcus haemolyticus (GC 4546): 2 µg/mL (≈ 1.39 µM)
Staphylococcus sp.; strain ATCC 29213
  MIC Staphylococcus aureus (ATCC 29213): 8 µg/mL (≈ 5.55 µM)
Staphylococcus sp.; strain GC 1131
  MIC Staphylococcus aureus (GC 1131): 8 µg/mL (≈ 5.55 µM)
Staphylococcus sp.; strain GC 3051
  MIC Staphylococcus aureus (GC 3051): 8 µg/mL (≈ 5.55 µM)
Staphylococcus sp.; strain GC 3053
  MIC Staphylococcus aureus (GC 3053): 16 µg/mL (≈ 11.1 µM)
Staphylococcus sp.; strain GC 4541
  MIC Staphylococcus aureus (GC 4541): 4 µg/mL (≈ 2.77 µM)
Staphylococcus sp.; strain GC 4542
  MIC Staphylococcus aureus (GC 4542): 8 µg/mL (≈ 5.55 µM)
Staphylococcus sp.; strain GC 4543
  MIC Staphylococcus aureus-SMITH (GC 4543): 8 µg/mL (≈ 5.55 µM)
Staphylococcus sp.; strain GC 4544
  MIC Staphylococcus aureus (GC 4544): 8 µg/mL (≈ 5.55 µM)
Staphylococcus sp.; strain GC 4545
  MIC Staphylococcus aureus (GC 4545): 4 µg/mL (≈ 2.77 µM)
Staphylococcus sp.; strain GC 4546
  MIC Staphylococcus haemolyticus (GC 4546): 2 µg/mL (≈ 1.39 µM)
Staphylococcus sp.; strain GC 4547
  MIC Coagulase Negative Staphylococcus (GC 4547): 4 µg/mL (≈ 2.77 µM)
Staphylococcus sp.; strain GC 4548
  MIC Coagulase Negative Staphylococcus (GC 4548): 4 µg/mL (≈ 2.77 µM)
Staphylococcus sp.; strain GC 4549
  MIC Coagulase Negative Staphylococcus (GC 4549): 2 µg/mL (≈ 1.39 µM)
Staphylococcus sp.; strain GC 4551
  MIC Coagulase Negative Staphylococcus (GC 4551): 8 µg/mL (≈ 5.55 µM)
Staphylococcus sp.; strain GC 6257
  MIC Coagulase Negative Staphylococcus (GC 6257): 2 µg/mL (≈ 1.39 µM)
Enterococcus sp.
  MIC Enterococcus faecalis (ATCC 29212): 32 µg/mL (≈ 22.2 µM)
  MIC Enterococcus faecalis (GC 2242): 16 µg/mL (≈ 11.1 µM)
  MIC Enterococcus faecium (GC 2243): 32 µg/mL (≈ 22.2 µM)
  MIC Enterococcus faecalis (GC 2691): 32 µg/mL (≈ 22.2 µM)
  MIC Enterococcus faecalis (GC 3059): 32 µg/mL (≈ 22.2 µM)
  MIC Enterococcus faecalis (GC 4552): 32 µg/mL (≈ 22.2 µM)
  MIC Enterococcus faecalis (GC 4553): 32 µg/mL (≈ 22.2 µM)
  MIC Enterococcus faecalis (GC 4554): 32 µg/mL (≈ 22.2 µM)
  MIC Enterococcus faecium (GC 4556): 32 µg/mL (≈ 22.2 µM)
  MIC Enterococcus faecium (GC 4557): 8 µg/mL (≈ 5.55 µM)
  MIC Enterococcus avium (GC 4558): 32 µg/mL (≈ 22.2 µM)
  MIC Enterococcus faecalis (GC 6189): 64 µg/mL (≈ 44.4 µM)
Escherichia coli
  MIC Escherichia coli (ATCC 25922): >64 µg/mL
  MIC Escherichia coli (GC 4559): >64 µg/mL
  MIC Escherichi coli (GC 4560): 2 µg/mL (≈ 1.39 µM)

## COc1cc(OC)cc(C2OCC3OC(OC4C(CO)OC(Oc5ccc(CC6NC(=O)C(C(C)c7ccccc7)NC(=O)CNC(=O)C(CO)NC(=O)C(C(O)C7CNC(=N)N7C7OC(CO)C(O)C(O)C7O)NC(=O)C(C(O)C7CNC(=N)N7)NC6=O)cc5)C(O)C4O)C(O)C(O)C3O2)c1 (stereo not drawn) [Example 150, Cyclo[glycyl-β-methylphenylalanyl-O-[4-O-[4,6-O-(3,5-dimethoxybenzylidene)hexopyranosyl]-hexopyranosyl]tyrosyl-3-(2-iminoimidazolidin-4-yl)seryl-3-(3-hexopyranosyl-2-iminoimidazolidin-4-yl)serylseryl]]
Streptococcus sp.
  MIC Streptococcus pneumoniae (ATCC 6301): 0.25 µg/mL (≈ 0.173 µM)
  MIC Streptococcus pneumoniae (GC 1894): 0.12 µg/mL (≈ 0.0831 µM)
  MIC Streptococcus pyogenes (GC 4563): 0.5 µg/mL (≈ 0.346 µM)
  MIC Streptococcus agalactiae (GC 4564): 1 µg/mL (≈ 0.693 µM)
  MIC Streptococcus pneumoniae (GC 4565): 0.25 µg/mL (≈ 0.173 µM)
Staphylococcus sp.; 5×10^5 CFU/mL
  MIC Coagulase Negative Staphylococcus (GC 4547): 2 µg/mL (≈ 1.39 µM)
  MIC Coagulase Negative Staphylococcus (GC 4548): 1 µg/mL (≈ 0.693 µM)
  MIC Coagulase Negative Staphylococcus (GC 4549): 1 µg/mL (≈ 0.693 µM)
  MIC Coagulase Negative Staphylococcus (GC 4551): 2 µg/mL (≈ 1.39 µM)
  MIC Coagulase Negative Staphylococcus (GC 6257): 1 µg/mL (≈ 0.693 µM)
  MIC Staphylococcus aureus (ATCC 29213): 2 µg/mL (≈ 1.39 µM)
  MIC Staphylococcus aureus (GC 1131): 4 µg/mL (≈ 2.77 µM)
  MIC Staphylococcus aureus (GC 3051): 2 µg/mL (≈ 1.39 µM)
  MIC Staphylococcus aureus (GC 3053): 8 µg/mL (≈ 5.54 µM)
  MIC Staphylococcus aureus (GC 4541): 2 µg/mL (≈ 1.39 µM)
  MIC Staphylococcus aureus (GC 4542): 2 µg/mL (≈ 1.39 µM)
  MIC Staphylococcus aureus (GC 4544): 2 µg/mL (≈ 1.39 µM)
  MIC Staphylococcus aureus (GC 4545): 2 µg/mL (≈ 1.39 µM)
  MIC Staphylococcus aureus-SMITH (GC 4543): 2 µg/mL (≈ 1.39 µM)
  MIC Staphylococcus haemolyticus (GC 4546): 1 µg/mL (≈ 0.693 µM)
Staphylococcus sp.; strain ATCC 29213
  MIC Staphylococcus aureus (ATCC 29213): 2 µg/mL (≈ 1.39 µM)
Staphylococcus sp.; strain GC 1131
  MIC Staphylococcus aureus (GC 1131): 4 µg/mL (≈ 2.77 µM)
Staphylococcus sp.; strain GC 3051
  MIC Staphylococcus aureus (GC 3051): 2 µg/mL (≈ 1.39 µM)
Staphylococcus sp.; strain GC 3053
  MIC Staphylococcus aureus (GC 3053): 8 µg/mL (≈ 5.54 µM)
Staphylococcus sp.; strain GC 4541
  MIC Staphylococcus aureus (GC 4541): 2 µg/mL (≈ 1.39 µM)
Staphylococcus sp.; strain GC 4542
  MIC Staphylococcus aureus (GC 4542): 2 µg/mL (≈ 1.39 µM)
Staphylococcus sp.; strain GC 4543
  MIC Staphylococcus aureus-SMITH (GC 4543): 2 µg/mL (≈ 1.39 µM)
Staphylococcus sp.; strain GC 4544
  MIC Staphylococcus aureus (GC 4544): 2 µg/mL (≈ 1.39 µM)
Staphylococcus sp.; strain GC 4545
  MIC Staphylococcus aureus (GC 4545): 2 µg/mL (≈ 1.39 µM)
Staphylococcus sp.; strain GC 4546
  MIC Staphylococcus haemolyticus (GC 4546): 1 µg/mL (≈ 0.693 µM)
Staphylococcus sp.; strain GC 4547
  MIC Coagulase Negative Staphylococcus (GC 4547): 2 µg/mL (≈ 1.39 µM)
Staphylococcus sp.; strain GC 4548
  MIC Coagulase Negative Staphylococcus (GC 4548): 1 µg/mL (≈ 0.693 µM)
Staphylococcus sp.; strain GC 4549
  MIC Coagulase Negative Staphylococcus (GC 4549): 1 µg/mL (≈ 0.693 µM)
Staphylococcus sp.; strain GC 4551
  MIC Coagulase Negative Staphylococcus (GC 4551): 2 µg/mL (≈ 1.39 µM)
Staphylococcus sp.; strain GC 6257
  MIC Coagulase Negative Staphylococcus (GC 6257): 1 µg/mL (≈ 0.693 µM)
Enterococcus sp.
  MIC Enterococcus faecalis (ATCC 29212): 8 µg/mL (≈ 5.54 µM)
  MIC Enterococcus faecalis (GC 2242): 4 µg/mL (≈ 2.77 µM)
  MIC Enterococcus faecium (GC 2243): 8 µg/mL (≈ 5.54 µM)
  MIC Enterococcus faecalis (GC 2691): 4 µg/mL (≈ 2.77 µM)
  MIC Enterococcus faecalis (GC 3059): 8 µg/mL (≈ 5.54 µM)
  MIC Enterococcus faecalis (GC 4552): 8 µg/mL (≈ 5.54 µM)
  MIC Enterococcus faecalis (GC 4553): 8 µg/mL (≈ 5.54 µM)
  MIC Enterococcus faecalis (GC 4554): 8 µg/mL (≈ 5.54 µM)
  MIC Enterococcus faecium (GC 4556): 8 µg/mL (≈ 5.54 µM)
  MIC Enterococcus faecium (GC 4557): 4 µg/mL (≈ 2.77 µM)
  MIC Enterococcus avium (GC 4558): 8 µg/mL (≈ 5.54 µM)
  MIC Enterococcus faecalis (GC 6189): 8 µg/mL (≈ 5.54 µM)
Escherichia coli
  MIC Escherichia coli (ATCC 25922): >64 µg/mL
  MIC Escherichia coli (GC 4559): 32 µg/mL (≈ 22.2 µM)
  MIC Escherichi coli (GC 4560): 1 µg/mL (≈ 0.693 µM)
